Source: publication PMC4264749, “Phlebotomy Treatment for Elimination of Perfluoroalkyl Acids in a Highly Exposed Family: A Retrospective Case-Series” (PLoS ONE, 2014)
Like-named read-outs stand apart in the source and are kept apart here.

Experiments:
[1] = Serum PFAA concentrations in family members during intermittent phlebotomy (HPLC-MS/MS); format: in vivo, human; settings: for Serum concentration before treatment: before phlebotomy
Source text: After receiving informed consent, intermittent phlebotomy was undertaken at an overall rate (Table 2) that was equal to or less than the maximum rate of what is done for routine blood donations at the Canadian Blood Services: ∼500 ccs of whole blood every 56 days. Frequency and timing of blood removal was not consistent between family members because of their personal availability, success at each time of venesection, and compliance of each participant. […] Mineral supplementation was discussed and was taken by each participant.
All serum samples were submitted to ALS Laboratories (Edmonton, AB) for quantitative analysis of PFAAs (see Supporting Information, S1 Table). Samples were extracted by solid phase extraction and concentrations of PFHxS, PFOS, and PFOA were determined using high performance liquid chromatography/tandem mass spectrometry. Formic acid (0.1 M) along with a mixture of isotopically labeled PFAAs (Wellington Laboratories, Guelph, Ontario) were added to 1.0 mL of serum. The mixture was vortexed, sonicated, and subjected to solid phase extraction. The extract was concentrated to 100 uL and an instrument performance internal standard was added along with 200 uL of 90% 20 mM aqueous acetic acid/10% methanol. Procedural blanks were run with each set of samples, and method limits of quantification (LOQ) were 0.5 ng/mL for each analyte. For the few PFAA levels that fell below this LOQ (shown as hollow circles in Figs. 1–3), LOQ/√2 (i.e. 0.35 ng/mL) was substituted for purposes of data analysis. PFHxS, PFOS, and PFOA levels in all participating family members were >LOQ throughout the intervention except for 3 PFOS measurements out of 16 total measurements in the 3rd child and one PFOA measurement out of 9 total measurements in the […]. Written informed consent was given by participants (or parents in the case of children) for their clinical records to be used in this study.

[2] = Apparent elimination half-life (HLapp) and phlebotomy efficiency coefficient in treated family members; format: in vivo, human; settings: family members with regular phlebotomy, except parent
Source text: To evaluate the effect of phlebotomy, versus the expected rate of intrinsic elimination, we graphically and statistically compared the observed decreasing trends in each family member (fitted to a simple exponential decay model) with reference population elimination kinetics. Specifically, for the reference population of occupationally exposed retirees, we considered: i) the 95% confidence interval of the geometric mean elimination rate for each PFAA, and ii) the fastest individual rate of elimination rate among the reference population. For comparative purposes, the concentration of each PFAA in serum on the first day of the intervention was taken as time zero, and the models were forced through this starting point.
One metric that was calculated to compare the efficiency of the phlebotomy for removal of different PFAAs in each family member was termed the phlebotomy efficiency coefficient (EC). This was based on the subtractive difference between HLapp (yrs) in each treated family member and the geometric mean HLin (yrs) of the reference population according to Equation 1 . [drawing 1] (1)

[3] = parameters: method as in PMID 17805419; settings: cited from earlier work
[4] = parameters: method as in PMID 23980546; settings: urinary excretion, China, cited from earlier work
[5] = parameters: method as in earlier work; settings: cited from earlier work

Compound: O=C(O)C(F)(F)C(F)(F)C(F)(F)C(F)(F)C(F)(F)C(F)(F)C(F)(F)F [PFOA, perfluorooctanoic acid]
- Serum concentration before treatment ([1]; 1st Child): 4.7 ng/mL
- Serum concentration ([1]; 1st Child, sampling date 2009.10.12): 3.5 ng/mL
- Serum concentration ([1]; 1st Child, sampling date 2009.12.24): 4.4 ng/mL
- Serum concentration ([1]; 1st Child, sampling date 2009.6.9): 4.7 ng/mL
- Serum concentration ([1]; 1st Child, sampling date 2009.9.9): 3.9 ng/mL
- Serum concentration ([1]; 1st Child, sampling date 2010.10.14): 2.8 ng/mL
- Serum concentration ([1]; 1st Child, sampling date 2010.1.17): 4.0 ng/mL
- Serum concentration ([1]; 1st Child, sampling date 2010.2.11): 2.0 ng/mL
- Serum concentration ([1]; 1st Child, sampling date 2010.4.14): 3.8 ng/mL
- Serum concentration ([1]; 1st Child, sampling date 2011.12.5): 1.3 ng/mL
- Serum concentration ([1]; 1st Child, sampling date 2011.5.17, LOD=0.5ng/mL): 1.8 ng/mL
- Serum concentration ([1]; 1st Child, sampling date 2011.8.12, LOD=0.5ng/mL): 2.7 ng/mL
- Serum concentration ([1]; 1st Child, sampling date 2012.12.28, LOD=0.5ng/mL): 1.5 ng/mL
- Serum concentration ([1]; 1st Child, sampling date 2012.4.24): 2.3 ng/mL
- Serum concentration ([1]; 1st Child, sampling date 2012.8.21): 1.7 ng/mL
- Serum concentration ([1]; 1st Child, sampling date 2013.3.30): 1.5 ng/mL
- Serum concentration ([1]; 1st Child, sampling date 2013.7.30): 1.2 ng/mL
- Serum concentration before treatment ([1]; 2nd Child): 8.7 ng/mL
- Serum concentration ([1]; 2nd Child, sampling date 2009.10.24): 5.0 ng/mL
- Serum concentration ([1]; 2nd Child, sampling date 2009.6.6): 8.7 ng/mL
- Serum concentration ([1]; 2nd Child, sampling date 2009.7.2): 7.1 ng/mL
- Serum concentration ([1]; 2nd Child, sampling date 2009.7.30): 9.2 ng/mL
- Serum concentration ([1]; 2nd Child, sampling date 2009.8.24): 7.4 ng/mL
- Serum concentration ([1]; 2nd Child, sampling date 2009.9.27): 4.5 ng/mL
- Serum concentration ([1]; 2nd Child, sampling date 2010.1.3): 4.3 ng/mL
- Serum concentration ([1]; 2nd Child, sampling date 2010.2.15): 4.9 ng/mL
- Serum concentration ([1]; 2nd Child, sampling date 2011.10.2): 3.7 ng/mL
- Serum concentration ([1]; 2nd Child, sampling date 2011.12.24): 3.8 ng/mL
- Serum concentration ([1]; 2nd Child, sampling date 2011.4.27): 3.7 ng/mL
- Serum concentration ([1]; 2nd Child, sampling date 2011.8.14): 3.6 ng/mL
- Serum concentration ([1]; 2nd Child, sampling date 2012.12.24): 3.0 ng/mL
- Serum concentration ([1]; 2nd Child, sampling date 2012.4.6): 3.0 ng/mL
- Serum concentration ([1]; 2nd Child, sampling date 2013.5.11.): 2.1 ng/mL
- Serum concentration ([1]; 2nd Child, sampling date 2013.7.15): 1.9 ng/mL
- Serum concentration before treatment ([1]; 3rd Child): 8.2 ng/mL
- Serum concentration ([1]; 3rd Child, sampling date 2010.3.12): 6.6 ng/mL
- Serum concentration ([1]; 3rd Child, sampling date 2010.5.23): 5.3 ng/mL
- Serum concentration ([1]; 3rd Child, sampling date 2011.1.6): 4.2 ng/mL
- Serum concentration ([1]; 3rd Child, sampling date 2011.11.26): 2.2 ng/mL
- Serum concentration ([1]; 3rd Child, sampling date 2011.2.24): 3.3 ng/mL
- Serum concentration ([1]; 3rd Child, sampling date 2011.4.30): 3.0 ng/mL
- Serum concentration ([1]; 3rd Child, sampling date 2011.6.13): 3.2 ng/mL
- Serum concentration ([1]; 3rd Child, sampling date 2011.9.27): 3.0 ng/mL
- Serum concentration ([1]; 3rd Child, sampling date 2012.10.16): 2.1 ng/mL
- Serum concentration ([1]; 3rd Child, sampling date 2012.1.8): 2.9 ng/mL
- Serum concentration ([1]; 3rd Child, sampling date 2012.12.9): 2.5 ng/mL
- Serum concentration ([1]; 3rd Child, sampling date 2012.3.4): 3.2 ng/mL
- Serum concentration ([1]; 3rd Child, sampling date 2012.4.28): 3.2 ng/mL
- Serum concentration ([1]; 3rd Child, sampling date 2013.2.5): 2.2 ng/mL
- Serum concentration ([1]; 3rd Child, sampling date 2013.3.30): 2.2 ng/mL
- Serum concentration before treatment ([1]; 4th Child): 6.8 ng/mL
- Serum concentration before treatment ([1]; Average of 6 family members): 5.7 ng/mL
- Serum concentration before treatment ([1]; Parent one): 3.0 ng/mL
- Serum concentration ([1]; Parent one, sampling date 2009.10.11): 1.6 ng/mL
- Serum concentration ([1]; Parent one, sampling date 2009.10.12): 2.1 ng/mL
- Serum concentration ([1]; Parent one, sampling date 2009.11.12): 2.0 ng/mL
- Serum concentration ([1]; Parent one, sampling date 2009.12.14): 2.1 ng/mL
- Serum concentration ([1]; Parent one, sampling date 2009.2.2): 3.0 ng/mL
- Serum concentration ([1]; Parent one, sampling date 2009.5.18): 2.5 ng/mL
- Serum concentration ([1]; Parent one, sampling date 2009.6.1): 3.1 ng/mL
- Serum concentration ([1]; Parent one, sampling date 2009.7.4): 2.6 ng/mL
- Serum concentration ([1]; Parent one, sampling date 2009.9.1): 2.3 ng/mL
- Serum concentration ([1]; Parent one, sampling date 2010.10.10): 2.2 ng/mL
- Serum concentration ([1]; Parent one, sampling date 2010.1.17): 2.0 ng/mL
- Serum concentration ([1]; Parent one, sampling date 2010.3.13): 2.6 ng/mL
- Serum concentration ([1]; Parent one, sampling date 2011.1.6): 1.6 ng/mL
- Serum concentration ([1]; Parent one, sampling date 2011.11.26): 0.9 ng/mL
- Serum concentration ([1]; Parent one, sampling date 2011.2.24): 1.7 ng/mL
- Serum concentration ([1]; Parent one, sampling date 2011.4.30): 1.3 ng/mL
- Serum concentration ([1]; Parent one, sampling date 2011.6.22): 1.5 ng/mL
- Serum concentration ([1]; Parent one, sampling date 2011.8.4): 1.4 ng/mL
- Serum concentration ([1]; Parent one, sampling date 2011.9.27): 1.2 ng/mL
- Serum concentration ([1]; Parent one, sampling date 2012..12.28): 1.0 ng/mL
- Serum concentration ([1]; Parent one, sampling date 2012.1.14): 1.6 ng/mL
- Serum concentration ([1]; Parent one, sampling date 2012.11.1): 1.2 ng/mL
- Serum concentration ([1]; Parent one, sampling date 2012.3.4): 1.3 ng/mL
- Serum concentration ([1]; Parent one, sampling date 2012.4.29): 1.2 ng/mL
- Serum concentration ([1]; Parent one, sampling date 2012.7.8): 1.0 ng/mL
- Serum concentration ([1]; Parent one, sampling date 2012.8.21): 1.2 ng/mL
- Serum concentration ([1]; Parent one, sampling date 2013.10.27): 1.2 ng/mL
- Serum concentration ([1]; Parent one, sampling date 2013.2.18): 1.2 ng/mL
- Serum concentration ([1]; Parent one, sampling date 2013.3.30): 1.1 ng/mL
- Serum concentration ([1]; Parent one, sampling date 2013.5.11): 1.0 ng/mL
- Serum concentration ([1]; Parent one, sampling date 2013.7.15): 1.0 ng/mL
- Serum concentration ([1]; Parent one, sampling date 2013.9.8): 0.9 ng/mL
- Serum concentration before treatment ([1]; Parent two): 2.5 ng/mL
- Serum concentration ([1]; Parent two, sampling date 2009.6.1): 2.5 ng/mL
- Serum concentration ([1]; Parent two, sampling date 2009.7.7): 1.8 ng/mL
- Serum concentration ([1]; Parent two, sampling date 2009.8.24): 1.6 ng/mL
- Serum concentration ([1]; Parent two, sampling date 2010.1.3): 1.3 ng/mL
- Serum concentration ([1]; Parent two, sampling date 2012.3.13): 1.3 ng/mL
- Serum concentration ([1]; Parent two, sampling date 2013.1.1): 1.0 ng/mL
- Serum concentration ([1]; Parent two, sampling date 2013.10.6): 0.9 ng/mL
- Serum concentration ([1]; Parent two, sampling date 2013.6.22): 1.1 ng/mL
- HLapp compared with geometric mean HLin of reference population [2]: significantly shorter
- HLin of fastest eliminator in the reference population ([3]; reference population of occupationally exposed retirees (26 individuals)): 1.5 yrs
- 95% confidence interval of the geometric mean HLin ([3]; reference population of occupationally exposed retirees): 3.0–4.1 yrs
- HLin, 95% confidence interval ([3]; serum, retirees >55 yrs, previously occupationally exposed): 3.1–4.4 yrs
- HLapp ([4]; males and post-menopausal females): 2.6 years
- HLapp ([4]; reproductive-aged females): 2.1 years
- 95th percentile of serum concentration among Canadians ([5]; 2009–2011): 5 ng/mL
- median serum concentration among Canadians [5]: 2.7 ng/mL
